Measurements published in patent publication EP3046573B1, “AMYLIN ANALOGUES” (Zealand Pharma A/S, priority 2013, dated 2015).
Numbered stars: 1 amine (or outer) side, 2 acyl side, 3 side chain; on linkers, the order of the positions; unused ones are H or OH. Bridge positions count the residues as written; N and C are the ends. Square brackets hold non-standard residues; d marks the D form. Peptide text beside a SMILES is read from it. * marks the point of attachment. C16 diacid = O=C(O)CCCCCCCCCCCCCCC(=O)*; γGlu = O=C(O)[C@H](CCC(=O)[*:2])N[*:1]; Stearoyl = CCCCCCCCCCCCCCCCCC(=O)*; Palmitoyl = CCCCCCCCCCCCCCCC(=O)*; NMeI = CC[C@H](C)[C@H](NC)C(=O)O; Myristoyl = CCCCCCCCCCCCCC(=O)*; Sar = CNCC(=O)O

Legend:
[1] = Solubility assessment (turbidity absorbance at 325 nm); assay type: physicochemical; conditions: stock 2 mg/ml diluted 1:1, ambient temperature (typically 25°C), n=1; for Solubility, Acetate buffer pH 4: 100 mM acetate buffer pH 4.0; for Solubility, Acetate buffer pH 5: 100 mM acetate buffer pH 5.0; for Solubility, Histidine buffer pH 6: 100 mM histidine buffer pH 6.0; for Solubility, Histidine buffer pH 7: 100 mM histidine buffer pH 7.0; for Solubility, Phosphate buffer pH 6: 100 mM phosphate buffer pH 6.0; for Solubility, Phosphate buffer pH 7: 100 mM phosphate buffer pH 7.0; for Solubility, Phosphate buffer pH 7.5: 100 mM phosphate buffer pH7.5
In short: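 Read-out: turbidity as absorbance at 325 nm (280 nm also read), single samples, ambient temperature of typically 25°C. Samples were a 1:1 mix of 2 mg/ml stock (water, pH 2.5) with 100 mM acetate, histidine or phosphate buffers spanning pH 4.0–7.5. Cut-off: A325 ≤ 0.02 indicates ≥ 1 mg/ml.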

[2] = molecular target: T1, human calcitonin receptor (hCTR2) (Homo sapiens, UniProt P30988); assay: hCTR2 assay: induction of cAMP (AlphaScreen cAMP Assay kit) in COS7 cells expressing hCTR2; assay type: cell-based
T1 construct: expressed in transfected cells
T1 sequence (P30988 25-474): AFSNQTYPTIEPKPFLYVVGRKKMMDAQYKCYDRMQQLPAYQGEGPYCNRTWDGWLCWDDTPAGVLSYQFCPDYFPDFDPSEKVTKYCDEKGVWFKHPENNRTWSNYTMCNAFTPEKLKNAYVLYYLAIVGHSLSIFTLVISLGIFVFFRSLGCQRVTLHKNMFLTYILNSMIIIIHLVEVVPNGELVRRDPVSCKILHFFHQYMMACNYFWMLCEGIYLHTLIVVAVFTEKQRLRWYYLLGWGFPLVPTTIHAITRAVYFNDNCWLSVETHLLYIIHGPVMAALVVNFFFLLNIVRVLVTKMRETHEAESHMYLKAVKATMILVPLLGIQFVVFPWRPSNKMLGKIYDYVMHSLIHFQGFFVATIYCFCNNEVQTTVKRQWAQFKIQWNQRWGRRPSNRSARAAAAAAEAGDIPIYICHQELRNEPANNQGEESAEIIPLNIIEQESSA
In short: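 cAMP induction was measured by AlphaScreen in COS7 cells stably expressing hCTR2 without RAMPs, after 15 min at 37° C with increasing peptide concentrations, 100 µM IBMX and 0.1% casein (Tyrode, pH 7.4). A 4-parameter logistic fit gave EC50 and % efficacy versus pramlintide.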

SMILES | Solubility, Acetate buffer pH 4 [1] | Solubility, Acetate buffer pH 5 [1] | Solubility, Histidine buffer pH 6 [1] | Solubility, Histidine buffer pH 7 [1] | Solubility, Phosphate buffer pH 6 [1] | Solubility, Phosphate buffer pH 7 [1] | Solubility, Phosphate buffer pH 7.5 [1] | EC50 [2] [nM]
CC[C@H](C)[C@@H](C(=O)N[C@@H](CC(C)C)C(=O)N[C@@H](CO)C(=O)N[C@@H](CO)C(=O)N[C@H](C(=O)N[C@@H](CC(N)=O)C(=O)N[C@H](C(=O)NCC(=O)N[C@@H](CO)C(=O)N[C@@H](CC(N)=O)C(=O)N[C@H](C(=O)N1CCC[C@H]1C(N)=O)[C@@H](C)O)C(C)C)[C@@H](C)O)N(C)C(=O)[C@H](C)NC(=O)CN(C)C(=O)[C@H](Cc1ccccc1)NC(=O)[C@H](CC(N)=O)NC(=O)[C@H](CC(N)=O)NC(=O)[C@H](CO)NC(=O)[C@H](CO)NC(=O)[C@H](CCCNC(=N)N)NC(=O)[C@H](Cc1c[nH]cn1)NC(=O)[C@H](CC(C)C)NC(=O)[C@H](Cc1ccccc1)NC(=O)[C@H](CCC(=O)O)NC(=O)[C@H](C)NC(=O)[C@H](CC(C)C)NC(=O)[C@H](CCCNC(=N)N)NC(=O)[C@H](CCC(N)=O)NC(=O)[C@@H](NC(=O)[C@H](C)NC(=O)[C@@H]1CSSC[C@H](NC(=O)[C@H](CCCNC(=N)N)NC(=O)CC[C@H](NC(=O)CCCCCCCCCCCCCCC(=O)O)C(=O)O)C(=O)N[C@@H](CC(N)=O)C(=O)N[C@@H]([C@@H](C)O)C(=O)N[C@@H](C)C(=O)N[C@@H]([C@@H](C)O)C(=O)N1)[C@@H](C)O [Compound 90, [15CD]-isoGlu-RC()NTATC()ATQRLAEFLHRSSNNF-Gly(Me)-A-Ile(Me)-LSSTNVGSNTP-NH2] ({C16 diacid-γGlu}-RCNTATCATQRLAEFLHRSSNNF[Sar]A[NMeI]LSSTNVGSNTP-NH2; disulfide 2-7) | SS (SS indicates solubility ≥ 1mg/ml) | SS (SS indicates solubility ≥ 1mg/ml) | SS (SS indicates solubility ≥ 1mg/ml) | SS (SS indicates solubility ≥ 1mg/ml) | SS (SS indicates solubility ≥ 1mg/ml) | SS (SS indicates solubility ≥ 1mg/ml) | SS (SS indicates solubility ≥ 1mg/ml) | 0.066
CCCCCCCCCCCCCC(=O)N[C@@H](CCC(=O)N[C@@H](CCCNC(=N)N)C(=O)N[C@H]1CSSC[C@@H](C(=O)N[C@@H](C)C(=O)N[C@H](C(=O)N[C@@H](CCC(N)=O)C(=O)N[C@@H](CCCNC(=N)N)C(=O)N[C@@H](CC(C)C)C(=O)N[C@@H](C)C(=O)N[C@@H](CCC(=O)O)C(=O)N[C@@H](Cc2ccccc2)C(=O)N[C@@H](CC(C)C)C(=O)N[C@@H](Cc2c[nH]cn2)C(=O)N[C@@H](CCCNC(=N)N)C(=O)N[C@@H](CO)C(=O)N[C@@H](CO)C(=O)N[C@@H](CC(N)=O)C(=O)N[C@@H](CC(N)=O)C(=O)N[C@@H](Cc2ccccc2)C(=O)N(C)CC(=O)N[C@@H](C)C(=O)N(C)[C@H](C(=O)N[C@@H](CC(C)C)C(=O)N[C@@H](CO)C(=O)N[C@@H](CO)C(=O)N[C@H](C(=O)N[C@@H](CC(N)=O)C(=O)N[C@H](C(=O)NCC(=O)N[C@@H](CO)C(=O)N[C@@H](CC(N)=O)C(=O)N[C@H](C(=O)N2CCC[C@H]2C(N)=O)[C@@H](C)O)C(C)C)[C@@H](C)O)[C@@H](C)CC)[C@@H](C)O)NC(=O)[C@H]([C@@H](C)O)NC(=O)[C@H](C)NC(=O)[C@H]([C@@H](C)O)NC(=O)[C@H](CC(N)=O)NC1=O)C(=O)O [Compound 91, [Tetradecanoyl]-isoGlu-RC()NTATC()ATQRLAEFLHRSSNNF-Gly(Me)-A-Ile(Me)-LSSTNVGSNTP-NH2] ({Myristoyl-γGlu}-RCNTATCATQRLAEFLHRSSNNF[Sar]A[NMeI]LSSTNVGSNTP-NH2; disulfide 2-7) | SS (SS indicates solubility ≥ 1mg/ml) | SS (SS indicates solubility ≥ 1mg/ml) | SS (SS indicates solubility ≥ 1mg/ml) | SS (SS indicates solubility ≥ 1mg/ml) | SS (SS indicates solubility ≥ 1mg/ml) | SS (SS indicates solubility ≥ 1mg/ml) | SS (SS indicates solubility ≥ 1mg/ml) | 0.047
CCCCCCCCCCCCCCCC(=O)N[C@@H](CCC(=O)N[C@@H](CCCNC(=N)N)C(=O)N[C@H]1CSSC[C@@H](C(=O)N[C@@H](C)C(=O)N[C@H](C(=O)N[C@@H](CCC(N)=O)C(=O)N[C@@H](CCCNC(=N)N)C(=O)N[C@@H](CC(C)C)C(=O)N[C@@H](C)C(=O)N[C@@H](CCC(=O)O)C(=O)N[C@@H](Cc2ccccc2)C(=O)N[C@@H](CC(C)C)C(=O)N[C@@H](Cc2c[nH]cn2)C(=O)N[C@@H](CCCNC(=N)N)C(=O)N[C@@H](CO)C(=O)N[C@@H](CO)C(=O)N[C@@H](CC(N)=O)C(=O)N[C@@H](CC(N)=O)C(=O)N[C@@H](Cc2ccccc2)C(=O)N(C)CC(=O)N[C@@H](C)C(=O)N(C)[C@H](C(=O)N[C@@H](CC(C)C)C(=O)N[C@@H](CO)C(=O)N[C@@H](CO)C(=O)N[C@H](C(=O)N[C@@H](CC(N)=O)C(=O)N[C@H](C(=O)NCC(=O)N[C@@H](CO)C(=O)N[C@@H](CC(N)=O)C(=O)N[C@H](C(=O)N2CCC[C@H]2C(N)=O)[C@@H](C)O)C(C)C)[C@@H](C)O)[C@@H](C)CC)[C@@H](C)O)NC(=O)[C@H]([C@@H](C)O)NC(=O)[C@H](C)NC(=O)[C@H]([C@@H](C)O)NC(=O)[C@H](CC(N)=O)NC1=O)C(=O)O [Compound 92, [Hexadecanoyl]-isoGlu-RC()NTATC()ATQRLAEFLHRSSNNF-Gly(Me)-A-Ile(Me)-LSSTNVGSNTP-NH2] ({Palmitoyl-γGlu}-RCNTATCATQRLAEFLHRSSNNF[Sar]A[NMeI]LSSTNVGSNTP-NH2; disulfide 2-7) | SS (SS indicates solubility ≥ 1mg/ml) | SS (SS indicates solubility ≥ 1mg/ml) | SS (SS indicates solubility ≥ 1mg/ml) | SS (SS indicates solubility ≥ 1mg/ml) | SS (SS indicates solubility ≥ 1mg/ml) | SS (SS indicates solubility ≥ 1mg/ml) | SS (SS indicates solubility ≥ 1mg/ml) | 0.054
CCCCCCCCCCCCCCCCCC(=O)N[C@@H](CCC(=O)N[C@@H](CCCNC(=N)N)C(=O)N[C@H]1CSSC[C@@H](C(=O)N[C@@H](C)C(=O)N[C@H](C(=O)N[C@@H](CCC(N)=O)C(=O)N[C@@H](CCCNC(=N)N)C(=O)N[C@@H](CC(C)C)C(=O)N[C@@H](C)C(=O)N[C@@H](CCC(=O)O)C(=O)N[C@@H](Cc2ccccc2)C(=O)N[C@@H](CC(C)C)C(=O)N[C@@H](Cc2c[nH]cn2)C(=O)N[C@@H](CCCNC(=N)N)C(=O)N[C@@H](CO)C(=O)N[C@@H](CO)C(=O)N[C@@H](CC(N)=O)C(=O)N[C@@H](CC(N)=O)C(=O)N[C@@H](Cc2ccccc2)C(=O)N(C)CC(=O)N[C@@H](C)C(=O)N(C)[C@H](C(=O)N[C@@H](CC(C)C)C(=O)N[C@@H](CO)C(=O)N[C@@H](CO)C(=O)N[C@H](C(=O)N[C@@H](CC(N)=O)C(=O)N[C@H](C(=O)NCC(=O)N[C@@H](CO)C(=O)N[C@@H](CC(N)=O)C(=O)N[C@H](C(=O)N2CCC[C@H]2C(N)=O)[C@@H](C)O)C(C)C)[C@@H](C)O)[C@@H](C)CC)[C@@H](C)O)NC(=O)[C@H]([C@@H](C)O)NC(=O)[C@H](C)NC(=O)[C@H]([C@@H](C)O)NC(=O)[C@H](CC(N)=O)NC1=O)C(=O)O [Compound 93, [Octadecanoyl]-isoGlu-RC()NTATC()ATQRLAEFLHRSSNNF-Gly(Me)-A-Ile(Me)-LSSTNVGSNTP-NH2] ({Stearoyl-γGlu}-RCNTATCATQRLAEFLHRSSNNF[Sar]A[NMeI]LSSTNVGSNTP-NH2; disulfide 2-7) | SS (SS indicates solubility ≥ 1mg/ml) | SS (SS indicates solubility ≥ 1mg/ml) | SS (SS indicates solubility ≥ 1mg/ml) | SS (SS indicates solubility ≥ 1mg/ml) | SS (SS indicates solubility ≥ 1mg/ml) | SS (SS indicates solubility ≥ 1mg/ml) | SS (SS indicates solubility ≥ 1mg/ml) | 0.064
